Data taken from ChEMBL document CHEMBL5260832, “Hepatoprotective natural triterpenoids” (Eur J Med Chem, 2018).

Columns and labels:
[1] = Cytotoxicity against human HepG2 cells assessed as reduction in cell viability by SRB assay; assay type: toxicity, cell-based
[2] = test system: HepG2; assay: Cytoprotective activity against t-BHP induced cell death in human HepG2 cells assessed as cell survival rate at 10 uM relative to control; assay type: functional
[3] = test system: Hepatocyte; assay: Hepatoprotective activity against D-GaIN/TNFalpha-induced cell death in mouse hepatocyte at 100 uM relative to control; assay type: functional, cell-based; settings: Mus musculus, Hepatocyte
[4] = test system: Hepatocyte; assay: Hepatoprotective activity against D-GaIN-induced toxicity in mouse hepatocyte relative to control; assay type: functional, cell-based
[5] = test system: Hepatocyte; assay: Hepatoprotective activity against D-GaIN/TNFalpha-induced cell death in mouse hepatocyte at 100 uM; assay type: functional, cell-based
[6] = test system: Hepatocyte; assay: Hepatoprotective activity against D-GaIN/TNFalpha-induced cell death in mouse hepatocytes at 50 uM assessed as inhibition of cell death relative to control; assay type: functional; set-up: scale not given: the % may be the effect or the level left
[7] = test system: Hepatocyte; assay: Hepatoprotective activity against D-GaIN/TNFalpha -induced cell death in mouse hepatocyte assessed as inhibition at 50 uM relative to control; assay type: functional; set-up: scale not given: the % may be the effect or the level left
[8] = Hepatotoxicity in CCl4-induced ICR mouse model assessed as change in GSH-PX level, po measured after 7 days; assay type: toxicity, organism-based; settings: in vivo, 168 h, time 7 day
[9] = Hepatotoxicity in DMF-induced ICR mouse model assessed as change in GSH-PX level, po measured after 7 days; assay type: toxicity, organism-based; settings: in vivo, 168 h, time 7 day
[10] = Hepatotoxicity in CCl4-induced ICR mouse model assessed as change in CAT level, po measured after 7 days; assay type: toxicity, organism-based; settings: in vivo, 168 h, time 7 day
[11] = Hepatotoxicity in DMF-induced ICR mouse model assessed as change in CAT level, po measured after 7 days; assay type: toxicity, organism-based; settings: in vivo, 168 h, time 7 day
[12] = Hepatotoxicity in CCl4-induced ICR mouse model assessed as change in SOD level, po measured after 7 days; assay type: toxicity, organism-based; settings: in vivo, 168 h, time 7 day
[13] = Hepatotoxicity in DMF-induced ICR mouse model assessed as change in SOD level, po measured after 7 days; assay type: toxicity, organism-based; settings: in vivo, 168 h, time 7 day
[14] = test system: Mus musculus; assay: Hepatoprotective activity against D-GaIN/LPS induced liver injury mouse model assessed as reduction in AST at 100 mg/kg, ip relative to control; assay type: functional; set-up: scale not given: the % may be the effect or the level left
[15] = test system: Mus musculus; assay: Hepatoprotective activity against D-GaIN/LPS induced liver injury mouse model assessed as reduction in ALT at 100 mg/kg, ip relative to control; assay type: functional; set-up: scale not given: the % may be the effect or the level left
[16] = test system: Mus musculus; assay: Hepatoprotective activity against D-GaIN/LPS induced liver injury mouse model assessed as reduction in LDH level at 100 mg/kg, ip relative to control; assay type: functional; set-up: scale not given: the % may be the effect or the level left
[17] = test system: Hepatocyte; assay: Hepatoprotective activity against CCL4-induced rat hepatocyte toxicity assessed as decrease in GOT level at 3.33 mg/mL preincubated for 30 mins followed by CCL4 addition and measured after 180 mins by colorimetric method; assay type: functional; settings: time 210.0 min
[18] = test system: Hepatocyte; assay: Hepatoprotective activity against CCL4-induced rat hepatocyte toxicity assessed as decrease in GPT level at 3.33 mg/mL preincubated for 30 mins followed by CCL4 addition and measured after 180 mins by colorimetric method; assay type: functional; settings: time 210.0 min
[19] = test system: Hepatocyte; assay: Hepatoprotective activity against CCL4-induced rat hepatocyte toxicity assessed as decrease in ALP level at 3.33 mg/mL preincubated for 30 mins followed by CCL4 addition and measured after 180 mins by colorimetric method; assay type: functional; settings: time 210.0 min
[20] = test system: Huh-7; assay: Hepatoprotective activity against CCL4-induced mouse model in human Huh-7 cells assessed as decrease in ALT level at 100 ug/mL; assay type: functional; settings: dose 100.0 µg/ml
[21] = test system: Mus musculus; assay: Hepatoprotective activity against CCl4-induced liver injury mouse model assessed as reduction in ALT at 20 ug/mL, ip relative to control (reference value: 13.23 IU/L); assay type: functional; settings: dose 20.0 µg/ml
[22] = test system: Mus musculus; assay: Hepatoprotective activity against CCl4-induced liver injury mouse model assessed as reduction in AST at 20 ug/mL, ip relative to control (reference value: 9.27 IU/L); assay type: functional; settings: dose 20.0 µg/ml
[23] = test system: Mus musculus; assay: Hepatoprotective activity against CCl4-induced liver injury mouse model assessed as reduction in MDA level at 20 ug/mL, ip relative to control (reference value: 9.27 IU/L); assay type: functional; settings: dose 20.0 µg/ml
[24] = test system: Mus musculus; assay: Hepatoprotective activity against CCl4-induced liver injury mouse model assessed as increase in SOD level at 20 ug/mL, ip relative to control (reference value: 5.89 IU/L); assay type: functional; settings: dose 20.0 µg/ml
[25] = Hepatotoxicity in D-GaIN induced Wistar rat assessed as change in GTP leakage level for 10 days relative to control; assay type: toxicity; settings: in vivo, 240 h, time 10 day
[26] = Hepatotoxicity in D-GaIN induced Wistar rat assessed as change in induction of TAT level for 10 days relative to control; assay type: toxicity; set-up: concentration or dose not given beside the values; settings: in vivo, 240 h, time 10 day
[27] = species: Mus musculus; assay: Hepatoprotective activity against D-galactosamine-induced liver injury mouse model assessed as […] leakage at 50 ug/ml; assay type: functional; settings: dose 50 µg/ml
[28] = Hepatotoxicity in acetaminophen-induced Wistar rat assessed as reduction in liver damage by measuring histological score at 50 to 100 mg/kg (reference value: 4.83); assay type: toxicity, organism-based; settings: in vivo, dose 50-100 mg/kg
[29] = species: Mus musculus; assay: Hepatoprotective activity in CCl4-induced toxicity in liver injured mouse assessed as increase in inhibition of liver damage at 50 uM relative to control; assay type: functional; set-up: scale not given: the % may be the effect or the level left
[30] = test system: Hepatocyte; assay: Protection against CCL4-induced rat hepatocyte toxicity assessed as reduction in ALT level at 90 uM relative to control; assay type: functional; set-up: scale not given: the % may be the effect or the level left

Compound: COc1cc([C@H]2Oc3cc([C@H]4Oc5cc(O)cc(O)c5C(=O)[C@@H]4O)ccc3O[C@@H]2CO)ccc1O [SILYBIN A]
- EC50 [1]: 75.7 µM
- Activity [2]: 52.5%
- IC50 [3]: 29.9 µM
- IC50 [4]: 38.8 µM
- IC50 [5]: 33.6 µM
- Activity [6]: 61.2%
- Activity [7]: 61.2%

Compound: C[C@@H]1O[C@@H](O[C@H]2[C@H](OC(=O)[C@]34CCC(C)(C)C[C@H]3C3=CC[C@@H]5[C@@]6(C(=O)O)CC[C@H](O)[C@@](C)(C(=O)O)[C@@H]6CC[C@@]5(C)[C@]3(C)CC4)O[C@H](C)[C@H](O)[C@@H]2O)[C@H](O)[C@H](O)[C@H]1O[C@@H]1O[C@H](CO)[C@@H](O[C@@H]2OC[C@@H](O)[C@H](O)[C@H]2O[C@@H]2OC[C@H](O)[C@H](O)[C@H]2O)[C@H](O)[C@H]1O
- Activity [8]: 69.12 U/mg
- Activity [9]: 59.91 U/mg
- Activity [10]: 87.1 U/mg
- Activity [11]: 84.68 U/mg
- Activity [12]: 221.03 U/mg
- Activity [13]: 198.16 U/mg

Compound: SILYMARIN
- Activity [14]: 66%
- Activity [15]: 68%
- Activity [16]: 43%
- Activity [17]: 18.5 IU/L
- Activity [18]: 11.3 IU/L
- Activity [19]: 13.7 IU/L
- Activity [20]: 10.2 U/ml
- Activity [21]: 4.82 U/ml
- Activity [22]: 4.24 IU/L
- Activity [23]: 3.84 nmol/mL
- Activity [24]: 21.7 U/ml

Compound: CC1(C)CC[C@]2(C)CC[C@]3(C)C(=CC[C@@H]4[C@@]5(C)CC[C@@H](O)C(C)(C)[C@@H]5CC[C@]43C)[C@@H]2C1
- Activity [25]: 5.3%
- Activity [26]: 70.2%
- Activity [27]: 60.8%

Compound: CC1(C)CC[C@]2(C)CC[C@]3(C)C(=CC[C@@H]4[C@@]5(C)CC[C@H](O)C(C)(C)[C@@H]5CC[C@]43C)[C@@H]2C1 [beta-AMYRIN]
- Activity [28]: 2.17
- Activity [25]: 49.4%
- Activity [26]: 40%
- Activity [27]: 17.3%

Compound: C[C@@H]1O[C@@H](O[C@H]2[C@H](OC(=O)[C@]34CCC(C)(C)C[C@H]3C3=CC[C@@H]5[C@@]6(C(=O)O)CC[C@H](O)[C@@](C)(C(=O)O)[C@@H]6CC[C@@]5(C)[C@]3(C)CC4)O[C@H](C)[C@H](O)[C@@H]2O)[C@H](O)[C@H](O)[C@H]1O[C@@H]1O[C@H](CO)[C@@H](O[C@@H]2OC[C@@H](O)[C@H](O)[C@H]2O)[C@H](O)[C@H]1O
- Activity [8]: 67.77 U/mg
- Activity [9]: 59.57 U/mg
- Activity [10]: 85.63 U/mg
- Activity [11]: 81.85 U/mg
- Activity [12]: 193.68 U/mg
- Activity [13]: 196.16 U/mg

Compound: C[C@H]1[C@H](C)CC[C@]2(C(=O)O)CC[C@]3(C)C(=CC[C@@H]4[C@@]5(C)CC[C@H](O)[C@@](C)(CO)[C@@H]5CC[C@]43C)[C@H]12
- Activity [29]: 58.3%

Compound: C[C@@H]1O[C@@H](O[C@H]2[C@H](O[C@H]3CC[C@]4(C)[C@H]5CC=C6[C@@H]7CC(C)(C)CC[C@]7(C(=O)O[C@@H]7O[C@H](CO)[C@@H](O[C@@H]8O[C@H](CO)[C@@H](O)[C@H](O)[C@H]8O)[C@H](O)[C@H]7O[C@@H]7O[C@H](CO)[C@@H](O)[C@H](O)[C@H]7O)[C@H](O)C[C@@]6(C)[C@]5(C)CC[C@H]4C3(C)C)O[C@H](CO)[C@@H](O)[C@@H]2O)[C@H](O)[C@H](O)[C@H]1O
- Activity [30]: 4%
